{"source": "patent US7238812B2", "about": "“Tricyclic triazolobenzazepine derivatives, process for producing the same, and antiallergic agents” (Meji Seika Kaisha, Ltd., priority 1997, dated 2007)", "assay_type_in_all_cases": "in vivo", "key": {"[1]": {"experiment": "Oral absorption in dogs: plasma level by HPLC, AUC", "settings": "equimolar amount, in 0.5% aqueous methylcellulose solution, area under plasma level vs time curve", "procedure": "(§1) The compound of Synthesis Example 1, the compound of Example 7, and the compound of Example 20 were suspended or dissolved in a 0.5% aqueous methylcellulose solution. The resultant solutions were orally administered in an equimolar amount to dogs and rats. After the administration, the amount of each compound contained in plasma of each animal individual was quantitatively determined by HPLC. The absorption in each specimen was assayed by the area under a medicament level of plasma vs time curve (AUC). As a result, AUCs obtained by the compounds of Examples 7 and 20 as prodrugs were 3 to 4 times higher for the dog and 3 to 7 times higher for the rat compared with the compound of Synthesis Example 1 as an activator body."}, "[2]": {"experiment": "Oral absorption in rats: plasma level by HPLC, AUC", "settings": "equimolar amount, in 0.5% aqueous methylcellulose solution, area under plasma level vs time curve", "procedure": "as §1"}, "ICR male mice": {"tested_on": "ICR male mice", "settings": "ICR male mice (5 weeks old), dose of 2 g/kg, suspension in 0.5% aqueous methylcellulose solution", "source_text": "Acute Toxicity Test by Single Administration\nThe compound of Example 20 was homogeneously suspended in a 0.5% aqueous methylcellulose solution. The suspension was forcibly orally administered to ICR male mice (5 weeks old)."}}, "data": [{"smiles": "COc1cc2[nH]c(=O)c3nn(C(OC(=O)OC(C)C)C(C)C)nc3c(=O)c2cc1OC", "note": "(stereo not shown) [Example 20, 2-(1-Isopropoxycarbonyloxy-2-methylpropyl)-7,8-dimethoxy-4(5H),10-dioxo-2H-1,2,3-triazolo[4,5-c][1]benzazepine]", "values": [{"measurement": "AUC Dog", "setting": "[1]", "value": "1.2 ± 0.3", "unit": "µM·h"}, {"measurement": "AUC Rat", "setting": "[2]", "value": "1.4 ± 0.1", "unit": "µM·h"}, {"measurement": "Survival and abnormality after single forced oral administration", "setting": "ICR male mice", "value": "all the mice survived and developed no abnormality"}]}, {"smiles": "COc1cc2[nH]c(=O)c3nn(COC(=O)OC(C)C)nc3c(=O)c2cc1OC", "note": "[Example 7, 2-(Isopropoxycarbonyloxymethyl)-7,8-dimethoxy-4(5H),10-dioxo-2H-1,2,3-triazolo[4,5-c][1]benzazepine]", "values": [{"measurement": "AUC Dog", "setting": "[1]", "value": "0.9 ± 0.1", "unit": "µM·h"}, {"measurement": "AUC Rat", "setting": "[2]", "value": "0.6 ± 0.1", "unit": "µM·h"}]}, {"smiles": "COc1cc2[nH]c(=O)c3nn[nH]c3c(=O)c2cc1OC", "note": "[Synthesis Example 1, 7,8-Dimethoxy-4(5H),10-dioxo-1H-1,2,3-triazolo[4,5-c][1]benzazepine, reference compound]", "values": [{"measurement": "AUC Dog", "setting": "[1]", "value": "0.3 ± 0.1", "unit": "µM·h"}, {"measurement": "AUC Rat", "setting": "[2]", "value": "0.2 ± 0.1", "unit": "µM·h"}]}]}
